Results from patent US9757337B2, “Multicompartmental lipid nanoparticles” (CENTRE NATIONAL DE LA RECHERCHE SCIENTIFIQUE—CNRS, priority 2013, dated 2017).

Experiment: Stability of quercetin in various fluids quantified by HPLC assay
Type: physicochemical
Method: To this end, the stability of quercetin in various fluids was quantified by means of an HPLC assay. The various fluids studied were simulated gastric fluid (SGF, US Pharmacopeia) at room temperature and at 37° C., simulated intestinal fluid (SIF, US Pharmacopeia), 10 mM HEPES buffer (pH 7.4) and room-temperature water.

O=c1c(O)c(-c2ccc(O)c(O)c2)oc2cc(O)cc(O)c12 [quercetin]
stability in more acidic fluids compared with room-temperature water (more acidic fluids (SGF), samples over 24 hours): more stable | quercetin degraded (room-temperature water, within 17 hours): about 50%
